# From ChEMBL document CHEMBL4145634, “Discovery of Janus Kinase 2 (JAK2) and Histone Deacetylase (HDAC) Dual Inhibitors as a Novel Strategy for the Combinational Treatment of Leukemia and Invasive Fungal Infections” (J Med Chem, 2018)
# Columns and labels:
# [1] = system: HEL; assay: Cell cycle arrest in human HEL cells assessed as accumulation at G2/M phase at 1 uM after 48 hrs propidium iodide staining based flow cytometry (reference value: 9.32%); type: functional
# [2] = system: HEL; assay: Cell cycle arrest in human HEL cells assessed as accumulation at S phase at 1 uM after 48 hrs propidium iodide staining based flow cytometry relative to control; type: functional
# [3] = system: HEL; assay: Cell cycle arrest in human HEL cells assessed as accumulation at S phase at 10 uM after 48 hrs propidium iodide staining based flow cytometry relative to control; type: functional
# [4] = system: HEL; assay: Antitumor activity against human HEL cells xenografted in BALB/C nude mouse assessed as tumor growth inhibition at 10 mg/kg, ip bid treated for 21 consecutive days relative to control; type: functional; settings: read-out: TGI
# [5] = system: HEL; assay: Antitumor activity against human HEL cells xenografted in BALB/C nude mouse assessed as tumor growth at 10 mg/kg, ip bid treated for 21 consecutive days relative to control; type: functional
# [6] = system: HEL; assay: Antitumor activity in human HEL cells xenografted in SCID mouse assessed as increase in mouse survival at 10 mg/kg, ip qd measured on day 32; type: functional; settings: 768 h
# [7] = Half life in Sprague-Dawley rat at 10 mg/kg, ip by LC-MS/MS analysis; type: ADME, organism-based; settings: in vivo
# [8] = Tmax in Sprague-Dawley rat at 10 mg/kg, ip by LC-MS/MS analysis; type: ADME, organism-based; settings: in vivo
# [9] = Cmax in Sprague-Dawley rat at 10 mg/kg, ip by LC-MS/MS analysis; type: ADME, organism-based; parameters: dose 10 mg/kg, route intraperitoneal; settings: in vivo
# [10] = AUC (0 to infinity) in Sprague-Dawley rat at 10 mg/kg, ip by LC-MS/MS analysis; type: ADME, organism-based; parameters: dose 10 mg/kg, route intraperitoneal, time infinity; settings: in vivo
# [11] = system: Rattus norvegicus; assay: Clearance in Sprague-Dawley rat at 10 mg/kg, ip by LC-MS/MS analysis; type: ADME, organism-based; settings: in vivo
Compound,Activity [1],Activity [2],Activity [3],inhibition in vivo at 10 mg/kg [4],T/C [5],survival at 10 mg/kg [6],half-life [7],Tmax [8],Cmax [9],AUC(0-inf) [10],clearance [11]
CS(=O)(=O)Nc1ccc(-c2ccnc(Nc3ccc(N4CCC(C(=O)NCCCCCCCC(=O)NO)CC4)cc3)n2)cc1,8.23%,25.56%,,,,,,,,,
O=C(NO)c1ccc(-c2ccnc(Nc3ccc(N4CCOCC4)cc3)n2)cc1,,,48.68%,59.9%,41.1%,,,,,,
CS(=O)(=O)Nc1ccc(-c2ccnc(Nc3ccc(N4CCC(C(=O)Nc5ccc(/C=C/C(=O)NO)cc5)CC4)cc3)n2)cc1,11.75%,,,,,37.5%,5.14 h,0.5 h,1600 ng/mL,4470 ng·h/mL,37.4 mL/min/kg
